The results in this text go back to patent publication EP1714676A2, “Use of N-substituted-1,5-dideoxy-1,5-imino-D-glucitol compounds for treating hepatitis virus infections” (G.D. Searle LLC., priority 1999, dated 1999).

Data set [1] has as its system Hepatitis B Virus. Kind of data set: HBV secretion by chronically HBV secreting HepG2.2.15 cells (preS1 immunoprecipitation of secreted virions, PCR of viral DNA). The format is cell-based. As to conditions: 3 days, control = 100%. The procedure:
The anti-hepatitis B virus activity and effect on cell viability of a number of different N-substituted-1,5-dideoxy-1,5-imino-D-glucitol compounds were assessed using an in vitro assay employing chronically hepatitis B virus secreting HepG2.2.15 cells. The method employed was essentially that described in Block et al. (1994) Proc. Natl. Acad. Sci. USA 91:2235-2239.

Data set [2] has as its system woodchuck hepatitis virus (WHV). Nature of the data set: Woodchuck model: total HBV DNA by quantitative PCR. The format is in vivo. The settings on record: 0, 12.5, 25, 50, 100 mg/kg/day BID oral, 4 weeks. The method, then: (§1) Therefore, five groups of four animals each (all groups had both sexes, all but the control had two of each sex) were assigned to 0, 12.5, 25, 50, and 100 mg/kg/day with BID oral dosing. These were lab-reared wild animals. All animals were infected with woodchuck hepatitis virus (WHV) as neonates, and had been tested positive on serological tests for WHV surface antigen. Blood samples were drawn one week prior to dosing (-1 week), immediately before dosing (0 weeks), weekly during dosing (1, 2, 3, and 4 weeks), and after the end of dosing (5, 6, 8, and 10 weeks).
(§2) There are two measures of drug efficacy: reduction in total HBV DNA (measured by quantitative PCR), and reduction in HBV DNA from capsids with intact surface glycoproteins, which is the active form of the virus (measured by an ELISA-like immune precipitation assay followed by quantitative PCR).
The total HBV DNA levels were essentially constant over time within each animal (data not shown). There was a faint hint of a dose-response relationship with decreasing levels of virus with increasing levels of drug, except that three animals at the highest dose had very high virus levels. It is not possible to conclude that there is any relationship between dose of N-nonyl-DNJ and total HBV DNA. […]

For data set [3], the system named is HepG 2.2.15 (2.2.15) cells. Kind of data set: IC-90 values taken as basis for the combostat serial dilutions. As to conditions: Hepatitis B virus, HepG2.2.15; T. Block and G. Jacob, unpublished observation. It counts as cell-based. The method, then: The anti-hepatitis B virus effect of […] (3TC) alone and in combination with N-nonyl-DNJ was determined according to Korba ((1996) Antiviral Research 29(1):49-51), using the "combostat" strategy (Comstat Program, Combostat Corp., Duluth, MN). The combostat method involves serially diluting the IC-90 of each compound. The IC-90 of N-nonyl-DNJ has been determined to be between 4 and 10 µg/ml (T. Block and G. Jacob, unpublished observation). The accepted IC-90 for 3TC in HepG 2.2.15 (2.2.15) cells is 300nM to 500nM (Doong et al. (1991) Proc. Natl. Acad. Sci. USA 88:8495-8499).

Data set [4] has as its system woodchuck hepatitis virus (WHV). Nature of the data set: Woodchuck model: immune precipitated HBV DNA (IPDNA), immune precipitation followed by quantitative PCR. The format is in vivo. The method, then:
as §1, §2
Substantial variation existed in the IPDNA assay, both between assay runs and within assay runs (data not shown). Even so, it was possible to observe and model a slope over weeks 0-4 which is generally increasing for low dose animals and decreasing for high dose animals.
Before models are fitted to the data, a log transform was applied because: 1) the variation in IPDNA increases with increasing IPDNA values; the log transformation gives values with a nearly constant variation, and 2) it is expected that drug effects will appear as a constant multiplier of the IPDNA level. Because there are zero values of IPDNA, a small value (about 1/2 of the smallest non-zero value) was added to all values before the log transform.
Two approaches were used to model the changes in slope to week with dose of N-nonyl-DNJ: a linear modeling approach and a nonlinear model. Both approaches assume that the (linear) rate of change of the Log(IPDNA) measure over the dosing period is the "right" measure to reflect the effect of the drug on the virus. Both approaches are fit in stages, and the first stage is common to both approaches. First, a simple straight line regression model is fit using weeks 0-4 to predict log(IPDNA + 10) separately for each animal by run combination. In the second stage, the response variable is the slope fitted in the first stage.
For the linear approach, a model is fit with slope to week as the response where run is considered a block, dose has a significant effect (almost all of this effect is due to a slope to dose), and the relevant error for testing the effect of dose is the variation among animals treated alike (after the adjustment for the runs as blocks). This is similar to using the calibration data within each run to first adjust each run's data to a common virus DNA concentration; the difference is that here the data from the woodchucks are used for the run adjustment rather than only the calibration data.
For the nonlinear approach, a four parameter logistic model is fit with the slope to week as the response and the dose as the predictor. Again, run is considered a block, but because no run has all weeks, it is not possible to fully reflect the blocking in the nonlinear approach. […] The average maximum slope observed was 2.71 additional Log(IPDNA µg/mL)/week, or an increase of about […], the average minimum slope observed with N-nonyl-DNJ is 0.31 fewer Log (IPDNA µg/mL)/week), or about a decrease of about […]. The slopes, the fitted model, the parameter estimates from the model, and the approximate standard errors for these parameters are all shown in Figure 3. […] Whether in woodchucks or humans, the effective dose of both the N-alkyl-DNJ and nucleoside or nucleotide antiviral agent administered in combination therewith can be administered in two equal daily subdoses (i.e., B.I.D.).

In data set [5] the test system is HepG2.2.15 cells. It counts as cell-based.
Where [6] appears, read: concentration [200] (unit not given).
Where [7] appears, read: concentration [1000] (unit not given).

On to `CCCCN1C[C@H](O)[C@@H](O)[C@H](O)[C@H]1CO` [NBDNJ, N-(n-butyl-)-1,5-dideoxy-1,5-imino-D-glucitol, reference compound], for which the figures for the “Relative amount of HBV secreted, as a % of control” value in data set [1] (setting [6]) and in data set [1] (setting [7]) were 37.0 +/-13(n = 15) % and 3.2 +/-5(n = 15) %, respectively.

Take `CCCCCCCCCN1C[C@H](O)[C@@H](O)[C@H](O)[C@H]1CO` [Compound 1, N-(n-nonyl)-1,5-dideoxy-1,5-imino-D-glucitol]: the “effect on total HBV DNA measurements” value in data set [2] is reported as “no effect”. Besides, the IC90 in data set [3] was in the range of 4 to 10 µg/mL. Further, the EC50 in data set [4] (four parameter logistic model, slope of Log(IPDNA + 10) to week vs dose) worked out at 7.88 mg/kg/BID dose. In addition, in data set [4] (weeks 0-4 of dosing), the “average maximum slope observed” value is on record as 2.71 additional Log(IPDNA µg/mL)/week, the “average minimum slope observed” value is 0.31 fewer Log (IPDNA µg/mL)/week, the “decrease of IPDNA at average minimum slope” value is “about 25 %/week” and the “increase of IPDNA at average maximum slope” value is reported as “about 150 %/week”. For the same compound, in data set [4] (woodchucks, oral), the “approximate effective monotherapy dose” value is listed as “about 16 mg/kg/day”.

In the case of `CCC(CC)CN1C[C@H](O)[C@@H](O)[C@H](O)[C@H]1CO` [Compound 3, N-(2-ethylbutyl)-1,5-dideoxy-1,5-imino-D-glucitol], the “appearance of cells by gross microscopic examination” value in data set [5] was “unremarkable (healthy)”. Also, the “Relative amount of HBV secreted, as a % of control” value in data set [1] (setting [6]) is recorded as 5.0 +/-30 (n = 3) %; in data set [1] (setting [7]), 5.0 +/-20(n = 3) %.
